Data on seven molecules can be found in DBAASP.

Common to all, as to assay: ≥ marks a high value that may be exact or a test limit, other limits are often not marked, values filed in µg/mL are converted to µM
Assay [1] has as its system Pseudomonas aeruginosa PAO1.
Assay [2] relates to Escherichia coli ATCC 25922.
For assay [3], the system named is Klebsiella pneumoniae ATCC 13883.
Assay [4] deals with Enterobacter cloacae.
Assay [5] relates to Escherichia coli ML-35p.
Assay [6] concerns Escherichia coli.
In assay [7] the test system is Klebsiella aerogenes.
Assay [8] has as its system Pseudomonas aeruginosa 447.
The test system of assay [9] is Enterobacter cloacae ATCC 13047.
The subject of assay [10] is Haemophilus influenzae ATCC 49247.
For assay [11], the system named is Candida albicans ATCC 2002.
The subject of assay [12] is Pseudomonas aeruginosa.
The test system of assay [13] is Staphylococcus aureus ATCC 43300.
Assay [14] has as its system Candida albicans.
The subject of assay [15] is Staphylococcus aureus ATCC 25923.
For assay [16], the system named is Klebsiella pneumoniae ATCC 700603.
For assay [17], the system named is Enterococcus faecalis ATCC 29212.
Assay [18] relates to Staphylococcus aureus.
Assay [19] deals with Pseudomonas aeruginosa ATCC 27853.
For assay [20], the system named is Haemophilus influenzae ATCC 49766.
In assay [21] the test system is Xanthomonas axonopodis pv. glycines ISBF 327.
The test system of assay [22] is Staphylococcus aureus ATCC 29313.
Assay [23] relates to Staphylococcus aureus ATCC 33591.
For assay [24], the system named is Staphylococcus epidermidis ATCC 35984.
Assay [25] deals with Aspergillus niger.
Assay [26] concerns Aspergillus fumigatus.
Assay [27] deals with Klebsiella pneumoniae PTCC 4231.
In assay [28] the test system is Leuconostoc mesenteroides PTCC 1445.
For assay [29], the system named is Escherichia coli PTCC 2433.
Assay [30] relates to Bacillus cereus PTCC 1435.
The subject of assay [31] is Pseudomonas aeruginosa PTCC 2834.
The test system of assay [32] is Bacillus subtilis PTCC 4533.
Assay [33] relates to Staphylococcus aureus ATCC 25023.
The test system of assay [34] is Pseudomonas syringae pv. syringae EPS 94.
Assay [35] concerns Xanthomonas campestris pv. Vesicatoria 2133-2.
For assay [36], the system named is Erwinia amylovora PMV 6076.
The subject of assay [37] is Escherichia coli ATCC 35218.
Assay [38] concerns Staphylococcus aureus ATCC 25325.

Values after ≈ are worked out from the molar mass of the structure shown.

Consider `CC[C@H](C)[C@H](NC(=O)[C@@H](NC(=O)[C@H](CCCN=C(N)N)NC(=O)[C@@H]1CCCN1C(=O)[C@H](CCCCN)NC(=O)[C@H](CCCCN)NC(=O)[C@H](Cc1ccccc1)NC(=O)[C@H](Cc1ccccc1)NC(=O)[C@H](CCCCN)NC(=O)[C@H](CCCCN)NC(=O)[C@H](C)NC(=O)[C@H](CCCN=C(N)N)NC(=O)[C@H](CCCCN)NC(=O)[C@H](CCCCN)NC(=O)[C@@H](NC(=O)[C@H](CO)NC(=O)[C@H](CC(N)=O)NC(=O)[C@H](CCCCN)NC(=O)[C@H](CC(C)C)NC(=O)[C@H](CCCCN)NC(=O)[C@H](CCCCN)NC(=O)[C@H](Cc1ccccc1)NC(=O)[C@H](Cc1ccccc1)NC(=O)[C@@H](N)CCCCN)C(C)C)C(C)C)C(=O)NCC(=O)N[C@H](C(=O)N[C@@H](CO)C(=O)N[C@H](C(=O)N1CCC[C@H]1C(=O)N[C@@H](Cc1ccccc1)C(=O)O)[C@@H](C)CC)C(C)C` [KFFKKLKNSVKKRAKKFFKKPRVIGVSIPF], for which the MIC in [1] was 1.74 µM (≈ 6.25 µg/mL); in assay [2], 1.74 µM (≈ 6.25 µg/mL); in assay [3] it was 1.74 µM (≈ 6.25 µg/mL); in assay [4], 0.869 µM (≈ 3.13 µg/mL); in assay [5] it was 0.869 µM (≈ 3.13 µg/mL); in [6] it was 1.74 µM (≈ 6.25 µg/mL). The MIC in [7] was 1.74 µM (≈ 6.25 µg/mL); in assay [8], 1.74 µM (≈ 6.25 µg/mL); in assay [9], 6.95 µM (≈ 25 µg/mL); in [10] it was 0.869 µM (≈ 3.13 µg/mL); in assay [11] it was not below 55.6 µM; in [12], 3.48 µM (≈ 12.5 µg/mL). In addition, the MIC in assay [13] was 1.74 µM (≈ 6.25 µg/mL); in assay [14], more than 55.6 µM; in assay [15], 0.869 µM (≈ 3.13 µg/mL); in [16], 0.869 µM (≈ 3.13 µg/mL); in assay [17], 6.95 µM (≈ 25 µg/mL); in [18], 1.74 µM (≈ 6.25 µg/mL). The MIC in assay [19] was 1.74 µM (≈ 6.25 µg/mL); in [20] it was 0.869 µM (≈ 3.13 µg/mL).

With `CC[C@H](C)[C@H](NC(=O)[C@H](C)NC(=O)[C@H](C)NC(=O)[C@H](C)NC(=O)[C@H](C)NC(=O)[C@H](C)NC(=O)[C@H](C)NC(=O)[C@H](C)N)C(=O)N[C@@H](CCCCN)C(=O)N[C@@H](CCSC)C(=O)N[C@@H](CC(C)C)C(=O)N[C@@H](CCSC)C(=O)N[C@@H](CC(=O)O)C(=O)N[C@@H](CC(C)C)C(=O)N[C@H](C(=O)N[C@@H](CC(N)=O)C(=O)N[C@@H](CCC(=O)O)C(=O)N[C@@H](CCCN=C(N)N)C(=O)N[C@H](C(=O)N[C@@H](CCSC)C(=O)N[C@@H](C)C(=O)N[C@@H](CC(C)C)C(=O)N[C@@H](CC(N)=O)C(=O)N[C@@H](CCCCN)C(=O)N[C@@H](CCCCN)C(=O)N[C@@H](C)C(=O)N[C@@H](CCCCN)C(=O)N[C@@H](CCCCN)C(N)=O)[C@@H](C)CC)C(C)C` [AAAAAAAIKMLMDLVNERIMALNKKAKK], the MIC was found to be 1 µM (≈ 2.98 µg/mL) in assay [21], 10 µM (≈ 29.8 µg/mL) in assay [2], 20 µM (≈ 59.7 µg/mL) in assay [22] and 20 µM (≈ 59.7 µg/mL) in [19].

With `CC[C@H](C)[C@H](NC(=O)[C@H](CCCCN)NC(=O)[C@@H](NC(=O)[C@H](Cc1ccccc1)NC(=O)[C@H](C)NC(=O)[C@H](CCCCN)NC(=O)CNC(=O)[C@H](Cc1ccccc1)NC(=O)[C@H](CCCCN)NC(=O)[C@@H](N)CCCCN)C(C)C)C(=O)N[C@@H](CC(C)C)C(=O)N[C@@H](CCCCN)C(N)=O` [KKFGKAFVKILK], the MIC in assay [23] was not below 182 µM; in assay [15] it was 182 µM (≈ 256 µg/mL); in [24], not below 64.3 µM; in [19], 16.1 µM (≈ 22.6 µg/mL).

On to `CC[C@H](C)[C@H](NC(=O)[C@H](CO)NC(=O)[C@H](CCCCN)NC(=O)[C@H](CC(C)C)NC(=O)[C@H](CCCN=C(N)N)NC(=O)[C@@H](N)CC(C)C)C(=O)N[C@H](C(=O)N[C@@H](CO)C(=O)N[C@@H](Cc1ccc(O)cc1)C(=O)N[C@@H](C)C(=O)N[C@@H](CCCCN)C(=O)N[C@@H](CCCCN)C(=O)N[C@H](C(=O)N[C@@H](CC(C)C)C(=O)O)C(C)C)C(C)C` [LRLKSIVSYAKKVL], for which the MIC in assay [25] was 15.2 µM (≈ 24.6 µg/mL); in assay [26], 11.9 µM (≈ 19.3 µg/mL); in assay [27], 16.5 µM (≈ 26.7 µg/mL); in assay [28] it was 12.2 µM (≈ 19.8 µg/mL); in assay [29] it was 17.5 µM (≈ 28.3 µg/mL); in assay [30], 9.33 µM (≈ 15.1 µg/mL). Further, the MIC worked out at 15 µM (≈ 24.2 µg/mL) in assay [31], 12.6 µM (≈ 20.4 µg/mL) in assay [14] and 10.9 µM (≈ 17.6 µg/mL) in assay [32].

As to `CC(C)C[C@H](NC(=O)[C@H](CCCN=C(N)N)NC(=O)[C@H](CC(C)C)NC(=O)[C@H](CC(C)C)NC(=O)[C@H](CC(C)C)NC(=O)[C@H](CC(C)C)NC(=O)[C@H](CC(C)C)NC(=O)[C@H](CCCCN)NC(=O)[C@H](Cc1c[nH]c2ccccc12)NC(=O)[C@@H](N)CCCN=C(N)N)C(N)=O` [RWKLLLLLRL], in assay [33], the MIC was 1.51 µM (≈ 2 µg/mL).

Take `CC[C@H](C)[C@H](NC(=O)[C@H](CCCCN)NC(=O)[C@H](CCCCN)NC(=O)[C@H](Cc1ccccc1)NC(=O)[C@H](CC(C)C)NC(=O)[C@H](CCCCN)NC(=O)[C@H](CCCCN)NC(=O)[C@H](C)NC(=O)[C@@H]1CCCN1C(=O)CNC(=O)[C@H](C)NC(=O)[C@H](CC(C)C)NC(=O)[C@H](Cc1ccc(O)cc1)NC(=O)[C@H](CCCCN)NC(=O)[C@H](CC(C)C)NC(=O)[C@@H](NC(=O)[C@H](CCCCN)NC(=O)[C@H](CCCCN)NC(=O)[C@H](Cc1ccccc1)NC(=O)[C@H](CC(C)C)NC(=O)[C@H](CCCCN)NC(=O)[C@H](CCCCN)NC(=O)CN)[C@@H](C)CC)C(=O)N[C@@H](CC(C)C)C(=O)N[C@@H](CCCCN)C(=O)N[C@@H](Cc1ccc(O)cc1)C(=O)N[C@@H](CC(C)C)C(=O)O` [GKKLFKKILKYLAGPAKKLFKKILKYL]: the MIC in assay [34] amounted to 8.66 µM (≈ 27.5 µg/mL); in assay [35], 14.1 µM (≈ 45 µg/mL); in assay [36] it was 14.1 µM (≈ 45 µg/mL).

Regarding `CC(C)C[C@H](NC(=O)CNC(=O)[C@@H](NC(=O)[C@H](Cc1cnc[nH]1)NC(=O)[C@H](CCCCN)NC(=O)[C@H](CC(C)C)NC(=O)[C@@H](N)CCCCN)C(C)C)C(=O)N[C@@H](Cc1cnc[nH]1)C(=O)N[C@H](C(=O)NCC(=O)N[C@@H](CCCCN)C(=O)N[C@@H](CC(C)C)C(=O)N[C@@H](CCCCN)C(=O)O)C(C)C` [KLKHVGLHVGKLK], the MIC in assay [37] is not below 43.4 µM; in assay [38], not below 40.2 µM; in assay [17], 52.3 µM (≈ 76.2 µg/mL); in [19], 56 µM (≈ 81.6 µg/mL).
